Assay results as given in patent publication US20050112573A1, “Method of detecting toxic substance” (priority 2001, published 2005).

Tested on: yeast genes (level of expressed mRNA)
Experiment: DNA chip analysis of expressed mRNA of yeast genes after 2 h culture with a toxic chemical substance
Format: cell-based, Saccharomyces cerevisiae S288C
Method in brief: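 S. cerevisiae S288C in YPD at 25 °C was exposed at log phase for 2 h to a growth-inhibiting, non-lethal concentration of the chemical. Poly(A) mRNA was reverse-transcribed with Cy3- or Cy5-dUTP and hybridized to a whole-genome yeast DNA chip (65 °C, >12 h). Values are fluorescence ratios versus untreated cells.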

manganese ethylenebis(dithiocarbamate) [(8)]
The level of expressed mRNA in the presence of chemical substance/ (yeast gene YAL053W, ratio to control without chemical): 0.8 | The level of expressed mRNA in the presence of chemical substance/The level of expressed mRNA in the absence of chemical substance (yeast gene YAR010C): 1.3 | The level of expressed mRNA in the presence of chemical substance/The level of expressed mRNA in the absence of chemical substance (yeast gene YBL005W-A): 1.0 | The level of expressed mRNA in the presence of chemical substance/The level of expressed mRNA in the absence of chemical substance (yeast gene YBL041W): 1.7 | The level of expressed mRNA in the presence of chemical substance/The level of expressed mRNA in the absence of chemical substance (yeast gene YBL043W): 2.1 | The level of expressed mRNA in the presence of chemical substance/ (yeast gene YBL048W, ratio to control without chemical substance, 2 h culture): 1.2 | The level of expressed mRNA in the presence of chemical substance/The level of expressed mRNA in the absence of chemical substance (yeast gene YBL078C): 1.6 | The level of expressed mRNA in the presence of chemical substance/ (yeast gene YBL107C, ratio to control without chemical substance, 2 h culture): 1.9 | The level of expressed mRNA in the presence of chemical substance/in the absence of chemical substance (yeast gene YBR036C): 0.7 | The level of expressed mRNA in the presence of chemical substance/The level of expressed mRNA in the absence of chemical substance (yeast gene YBR214W): 0.7 | The level of expressed mRNA in the presence of chemical substance/in the absence of chemical substance (yeast gene YBR298C): 0.5 | The level of expressed mRNA in the presence of chemical substance/The level of expressed mRNA in the absence of chemical substance (yeast gene YCL020W): 1.7 | The level of expressed mRNA in the presence of chemical substance/The level of expressed mRNA in the absence of chemical substance (yeast gene YCL027W): 0.6 | The level of expressed mRNA in the presence of chemical substance/The level of expressed mRNA in the absence of chemical substance (yeast gene YCR004C): 1.2 | The level of expressed mRNA in the presence of chemical substance/The level of expressed mRNA in the absence of chemical substance (yeast gene YCR071C): 0.9 | The level of expressed mRNA in the presence of chemical substance/The level of expressed mRNA in the absence of chemical substance (yeast gene YCR088W): 0.5 | The level of expressed mRNA in the presence of chemical substance/The level of expressed mRNA in the absence of chemical substance (yeast gene YDL008W): 1.2 | The level of expressed mRNA in the presence of chemical substance/ (yeast gene YDL072C, ratio to control without chemical): 0.8 | The level of expressed mRNA in the presence of chemical substance/in the absence of chemical substance (yeast gene YDL078C): 1.0 | The level of expressed mRNA in the presence of chemical substance/ (yeast gene YDL204W, ratio to control without chemical): 1.1 | The level of expressed mRNA in the presence of chemical substance/in the absence of chemical substance (yeast gene YDL215C): 1.1 | The level of expressed mRNA in the presence of chemical substance/ (yeast gene YDL222C, ratio to control without chemical): 0.7 | The level of expressed mRNA in the presence of chemical substance/The level of expressed mRNA in the absence of chemical substance (yeast gene YDL238C): 5.8 | The level of expressed mRNA in the presence of chemical substance/The level of expressed mRNA in the absence of chemical substance (yeast gene YDR055W): 1.6 | The level of expressed mRNA in the presence of chemical substance/The level of expressed mRNA in the absence of chemical substance (yeast gene YDR084C): 0.7 | The level of expressed mRNA in the presence of chemical substance/The level of expressed mRNA in the absence of chemical substance (yeast gene YDR085C): 2.0 | The level of expressed mRNA in the presence of chemical substance/The level of expressed mRNA in the absence of chemical substance (yeast gene YDR104C): 1.3 | The level of expressed mRNA in the presence of chemical substance/The level of expressed mRNA in the absence of chemical substance (yeast gene YDR115W): 1.3 | The level of expressed mRNA in the presence of chemical substance/The level of expressed mRNA in the absence of chemical substance (yeast gene YDR259C): 1.4 | The level of expressed mRNA in the presence of chemical substance/in the absence of chemical substance (yeast gene YDR297W): 1.5 | The level of expressed mRNA in the presence of chemical substance/The level of expressed mRNA in the absence of chemical substance (yeast gene YDR315C): 1.4 | The level of expressed mRNA in the presence of chemical substance/ (yeast gene YDR330W, ratio to control without chemical substance, 2 h culture): 1.1 | The level of expressed mRNA in the presence of chemical substance/The level of expressed mRNA in the absence of chemical substance (yeast gene YDR358W): 1.2 | The level of expressed mRNA in the presence of chemical substance/in the absence of chemical substance (yeast gene YDR387C): 0.7 | The level of expressed mRNA in the presence of chemical substance/The level of expressed mRNA in the absence of chemical substance (yeast gene YDR388W): 0.8 | The level of expressed mRNA in the presence of chemical substance/ (yeast gene YDR411C, ratio to control without chemical substance, 2 h culture): 0.9 | The level of expressed mRNA in the presence of chemical substance/The level of expressed mRNA in the absence of chemical substance (yeast gene YDR432W): 0.5 | The level of expressed mRNA in the presence of chemical substance/The level of expressed mRNA in the absence of chemical substance (yeast gene YDR481C): 1.0 | The level of expressed mRNA in the presence of chemical substance/The level of expressed mRNA in the absence of chemical substance (yeast gene YDR510W): 1.5 | The level of expressed mRNA in the presence of chemical substance/ (yeast gene YDR511W, ratio to control without chemical substance, 2 h culture): 1.7 | The level of expressed mRNA in the presence of chemical substance/ (yeast gene YDR545W, ratio to control without chemical substance, 2 h culture): 0.6 | The level of expressed mRNA in the presence of chemical substance/ (yeast gene YEL001C, ratio to control without chemical): 1.2 | The level of expressed mRNA in the presence of chemical substance/The level of expressed mRNA in the absence of chemical substance (yeast gene YEL042W): 0.7 | The level of expressed mRNA in the presence of chemical substance/The level of expressed mRNA in the absence of chemical substance (yeast gene YEL066W): 1.4 | The level of expressed mRNA in the presence of chemical substance/ (yeast gene YER004W, ratio to control without chemical substance, 2 h culture): 1.1 | The level of expressed mRNA in the presence of chemical substance/ (yeast gene YER035W, ratio to control without chemical substance, 2 h culture): 1.2 | The level of expressed mRNA in the presence of chemical substance/The level of expressed mRNA in the absence of chemical substance (yeast gene YER039C): 0.7 | The level of expressed mRNA in the presence of chemical substance/ (yeast gene YER079W, ratio to control without chemical substance, 2 h culture): 1.4 | The level of expressed mRNA in the presence of chemical substance/ (yeast gene YER106W, ratio to control without chemical): 1.2 | The level of expressed mRNA in the presence of chemical substance/The level of expressed mRNA in the absence of chemical substance (yeast gene YER107C): 0.8 | The level of expressed mRNA in the presence of chemical substance/The level of expressed mRNA in the absence of chemical substance (yeast gene YER130C): 1.2 | The level of expressed mRNA in the presence of chemical substance/ (yeast gene YER158C, ratio to control without chemical substance, 2 h culture): 0.9 | The level of expressed mRNA in the presence of chemical substance/ (yeast gene YER163C, ratio to control without chemical substance, 2 h culture): 1.4 | The level of expressed mRNA in the presence of chemical substance/ (yeast gene YER175C, ratio to control without chemical substance, 2 h culture): 1.1 | The level of expressed mRNA in the presence of chemical substance/ (yeast gene YFL006W, ratio to control without chemical substance, 2 h culture): 1.0
